Columns and labels:
Assay type in all cases: biochemical
Conditions in all cases: fluorogenic substrate, pH 7.5
[1] = molecular target: T1, catalytic domain of human collagenase-1 (MMP-1) (Homo sapiens, UniProt P03956); experiment: enzymatic activity of the catalytic domain of human collagenase-1 (MMP-1)
T1 construct: Determining the enzymatic activity of the catalytic domain of human collagenase-1 (MMP-1); purchased Biocol, Potsdam MMP1
T1 sequence (P03956 100-269 limits assumed): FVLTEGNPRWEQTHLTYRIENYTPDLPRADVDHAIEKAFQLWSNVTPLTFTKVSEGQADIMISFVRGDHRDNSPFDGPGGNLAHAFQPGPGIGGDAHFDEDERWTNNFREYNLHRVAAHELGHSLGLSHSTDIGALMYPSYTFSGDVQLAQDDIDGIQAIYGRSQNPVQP
Method: Determining the enzymatic activity of the catalytic domain of human collagenase-1 (MMP-1).
(§1) Activation of the Proenzyme:
2 parts by volume of proenzyme are incubated, at 37° C. for 1 hour, with 1 part by volume of APMA solution. The APMA solution is prepared from a 10 mmol/l solution of p-aminophenylmercuric acetate in 0.1 mmol/l NaOH by diluting with 3 parts by volume of Tris/HCl buffer pH 7.5 (see below). The pH is adjusted to between 7.0 and 7.5 by adding 1 mmol/l HCl. After the enzyme has been activated, it is diluted with the Tris/HCl buffer down to a concentration of 2.5 μg/ml. In order to measure the enzyme activity, 10 μl of enzyme solution are incubated, for 15 minutes, with 10 μl of a 3% (v/v) buffered solution of dimethyl sulfoxide (reaction 1). […]
Both in the case of reaction 1 and in the case of reaction 2, the enzyme reaction is monitored by fluorescence spectroscopy (328 nm (extinction)/393 nm (emission)) after 10 μl of a 3% (v/v) aqueous solution of dimethyl sulfoxide which contains 0.3 mmol of the substrate/l has been added. The enzyme activity is expressed as increase in extinction/minute. The inhibitor effect is calculated as percentage inhibition in accordance with the following formula: % inhibition=100−[(increase in extinction/minute in reaction 2)/(increase in extinction/minute in reaction 1)×100]. […]

[2] = molecular target: T2, catalytic domain of human gelatinase-A (MMP-2) (Homo sapiens, UniProt P08253); experiment: enzymatic activity of the catalytic domain of human gelatinase-A (MMP-2)
T2 construct: Determining the enzymatic activity of the catalytic domain of human gelatinase-A (MMP-2); purchased INVITEK, Berlin 30 100 602
T2 sequence (P08253 110-465 limits assumed): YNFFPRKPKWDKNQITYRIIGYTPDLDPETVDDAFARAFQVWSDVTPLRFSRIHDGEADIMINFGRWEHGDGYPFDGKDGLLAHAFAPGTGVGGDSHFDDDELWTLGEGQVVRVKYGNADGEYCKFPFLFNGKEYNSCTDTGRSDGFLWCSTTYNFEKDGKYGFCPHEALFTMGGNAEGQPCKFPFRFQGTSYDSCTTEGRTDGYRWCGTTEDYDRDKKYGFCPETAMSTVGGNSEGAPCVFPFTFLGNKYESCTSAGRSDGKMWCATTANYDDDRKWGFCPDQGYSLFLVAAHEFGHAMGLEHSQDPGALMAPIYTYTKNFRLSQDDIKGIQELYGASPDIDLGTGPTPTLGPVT
Method: Determining the enzymatic activity of the catalytic domain of human gelatinase-A (MMP-2).
as §1
2 parts by volume of proenzyme were incubated, at 37° C. for 0.5 hour, with 1 part by volume of APMA solution. The APMA solution was prepared from a 10 mmol/l p-aminophenylmercuric acetate solution in 0.1 mmol/l NaOH by diluting with 3 parts by volume of Tris/HCl buffer pH 7.5 (see below). The pH was adjusted to between 7.0 and 7.5 by adding 1 mmol HCl/l. After the enzyme had been activated, it was diluted with the Tris/HCl buffer down to a concentration of 0.83 μg/ml. In order to measure the enzyme activity, 10 μl of enzyme solution were incubated, for 15 minutes, with 10 μl of a 3% (v/v) buffered solution of dimethyl sulfoxide (reaction 1). […]
Both in the case of reaction 1 and in the case of reaction 2, the enzyme reaction was monitored by fluorescence spectroscopy (328 nm (extinction)/393 nm (emission)) after 10 μl of a 3% (v/v) aqueous solution of dimethyl sulfoxide containing 0.3 mmol of the substrate/l had been added.
(§2) The enzyme activity was expressed as increase in extinction/minute.
(§3) The inhibitor effect was calculated as a percentage inhibition in accordance with the following formula: % inhibition=100−[(increase in extinction/minute in reaction 2)/(increase in extinction/minute in reaction 1)×100]. […]

[3] = molecular target: T3, catalytic domain of human stromelysin (MMP-3) (Homo sapiens, UniProt P08254); experiment: enzymatic activity of the catalytic domain of human stromelysin (MMP-3)
T3 construct: catalytic domains of human stromelysin (MMP-3) and neutrophil collagenase (MMP-8); made in house
T3 sequence (P08254 100-272 limits assumed): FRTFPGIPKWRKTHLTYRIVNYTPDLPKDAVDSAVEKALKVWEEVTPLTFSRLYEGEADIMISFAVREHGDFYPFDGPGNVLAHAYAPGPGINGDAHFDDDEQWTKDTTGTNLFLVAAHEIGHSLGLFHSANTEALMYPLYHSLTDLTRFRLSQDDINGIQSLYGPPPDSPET
Method: (§4) Preparation, and determination of the enzymatic activity, of the catalytic domains of human stromelysin (MMP-3) and neutrophil collagenase (MMP-8).
(§5) The two enzymes, i.e. stromelysin (MMP-3) and neutrophil collagenase (MMP-8), were prepared in accordance with Ye et al. (Biochemistry; 31 (1992) pages 11231-11235). In order to measure the enzyme activity, or the enzyme inhibitor effect, 10 μl of enzyme solution were incubated, for 15 minutes, with 10 μl of a 3% (v/v) buffered solution of dimethyl sulfoxide which contained the enzyme inhibitor, where appropriate. After 10 μl of a 3% (v/v) aqueous solution of dimethyl sulfoxide containing 1 mmol of the substrate/l had been added, the enzyme reaction was monitored by fluorescence spectroscopy (328 nm (ex)/393 nm (em)).
(§6) The enzyme activity is expressed as increase in extinction/minute. The IC50 values listed in table 2 were determined as being those inhibitor concentrations which in each case led to a 50% inhibition of the enzyme.
(§7) The buffer solution contained 0.05% Brij (Sigma, Deisenhofen, Germany) and also 0.1 mol of Tris/HCl/l, 0.1 mol of NaCl/l, 0.01 mol of CaCl2/l and 0.1 mol of piperazine-N,N′-bis[2-ethanesulfonic acid]/l (pH=7.5). […]

[4] = molecular target: T4, catalytic domain of human neutrophil collagenase (MMP-8) (Homo sapiens, UniProt P22894); experiment: enzymatic activity of the catalytic domain of human neutrophil collagenase (MMP-8)
T4 construct: catalytic domains of human stromelysin (MMP-3) and neutrophil collagenase (MMP-8); made in house
T4 sequence (P22894 100-262 limits assumed): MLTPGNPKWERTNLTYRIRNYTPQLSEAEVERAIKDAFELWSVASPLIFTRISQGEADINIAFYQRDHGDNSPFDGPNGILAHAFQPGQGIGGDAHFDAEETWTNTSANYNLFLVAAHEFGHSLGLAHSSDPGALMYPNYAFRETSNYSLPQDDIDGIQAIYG
Method: as §4, §5, §6, §7

[5] = molecular target: T5, catalytic domain of human gelatinase-B (MMP-9) (Homo sapiens, UniProt P14780); experiment: enzymatic activity of the catalytic domain of human gelatinase-B (MMP-9)
T5 construct: Determining the enzymatic activity of the catalytic domain of human gelatinase-B (MMP-9); purchased Roche, Mannheim 1 758 896
T5 sequence (P14780 107-444 limits assumed): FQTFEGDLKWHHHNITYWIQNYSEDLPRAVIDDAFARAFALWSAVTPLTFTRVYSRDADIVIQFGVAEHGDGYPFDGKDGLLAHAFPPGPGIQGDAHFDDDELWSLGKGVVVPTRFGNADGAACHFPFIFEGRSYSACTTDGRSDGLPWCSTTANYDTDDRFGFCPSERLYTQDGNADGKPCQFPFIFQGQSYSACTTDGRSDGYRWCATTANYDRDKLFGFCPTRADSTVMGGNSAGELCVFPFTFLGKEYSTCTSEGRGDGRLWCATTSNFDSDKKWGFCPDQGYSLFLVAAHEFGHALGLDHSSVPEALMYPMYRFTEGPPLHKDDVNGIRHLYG
Method: Determining the enzymatic activity of the catalytic domain of human gelatinase-B (MMP-9).
as §1
2parts by volume of proenzyme were incubated, at 37° C. for 4 hours, with 1 part by volume of APMA solution. The APMA solution was prepared from a 10 mmol/l p-aminophenylmercuric acetate solution in 0.1 mmol/l NaOH by diluting with 3 parts by volume of Tris/HCl buffer, pH 7.5 (see below). The pH was adjusted to between 7.0 and 7.5 by adding 1 mmol/l HCl. After the enzyme had been activated, it was diluted with the Tris/HCl buffer down to a concentration of 4.2 mU/ml.
(§8) In order to measure the enzyme activity, 10 μl of enzyme solution were incubated, for 15 minutes, with 10 μl of a 3% (v/v) buffered solution of dimethyl sulfoxide (reaction 1). […]
Both in the case of reaction 1 and in the case of reaction 2, the enzyme reaction was monitored by fluorescence spectroscopy (328 nm (extinction)/393 nm (emission)) after 10 μl of a 3% (v/v) aqueous solution of dimethyl sulfoxide containing 0.15 mmol of the substrate/l had been added.
as §2, §3

[6] = molecular target: T6, catalytic domain of human collagenase-3 (MMP-13) (Homo sapiens, UniProt P45452); experiment: enzymatic activity of the catalytic domain of human collagenase-3 (MMP-13)
T6 construct: Determining the enzymatic activity of the catalytic domain of human collagenase-3 (MMP-13); purchased INVITEK, Berlin 30 100 803
Method: Determining the enzymatic activity of the catalytic domain of human collagenase-3 (MMP-13).
as §1
2 parts by volume of proenzyme were incubated, at 37° C. for 1.5 hours, with 1 part by volume of APMA solution. The APMA solution was prepared from a 10 mmol/l solution of p-aminophenylmercuric acetate in 0.1 mmol/l NaOH by diluting with 3 parts by volume of Tris/HCl buffer pH 7.5 (see below). The pH was adjusted to between 7.0 and 7.5 by adding 1 mmol/l HCl. After the enzyme had been activated, it was diluted with the Tris/HCl buffer down to a concentration of 1.67 μg/ml.
as §8
Both in the case of reaction 1 and in the case of reaction 2, the enzyme reaction was monitored by fluorescence spectroscopy (328 nm (extinction)/393 nm (emission)) after 10 μl of a 3% (v/v) aqueous solution of dimethyl sulfoxide containing 0.075 mmol of the substrate/l had been added. […]
as §3

IC50 [1]: 700 nM | IC50 [2]: 2.5 nM | IC50 [3]: 70 nM | IC50 [4]: 13 nM | IC50 [5]: 3.5 nM | IC50 [6]: 6.3 nM
Structure (SMILES): O=C(NO)C1c2c(sc3ccccc23)C(O)CN1S(=O)(=O)c1ccc(-c2ccc(Cl)cc2)cc1 (stereo not drawn) [Example 1, 2-(4′-Chlorobiphenyl-4-sulfonyl)-4-hydroxy-1,2,3,4-tetrahydrobenzo[4,5]thieno[3,2-c]pyridine-1-carboxylic acid hydroxyamide]

Source: patent US7399770B2, “Thieno-imino acid derivatives for use as matrix metalloproteinase inhibitors” (SANOFI-AVENTIS Deutschland GmbH, priority 2004, dated 2008)
